In patent US11667602B2, “Compounds and their use” (AstraZeneca AB, priority 2020, dated 2023):
In brackets after ≈: the same amount, converted by molar mass.

Assays:
[1] = Human Plasma Protein Binding (Test B); assay type: in vitro ADME; details: fraction unbound (fu)
How it was run: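 Human plasma protein binding run per the published Wernevik et al. (2020) integrated DMPK panel protocol. Values are fraction unbound (fu, % free); repeat runs averaged arithmetically.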

[2] = Human Liver Microsomal Stability (Test C); assay type: in vitro ADME; details: human, liver microsomes
How it was run: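 Human liver microsome incubation per the Wernevik et al. integrated DMPK panel protocol. Intrinsic clearance reported as CLint in μl/min/mg protein, averaged arithmetically over repeat runs.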

[3] = Rat Hepatocyte Stability (Test E); assay type: in vitro ADME; details: rat, hepatocytes, geometric mean if run multiple times
How it was run: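 Run per the published AstraZeneca-type rat hepatocyte stability protocol (Wernevik et al. panel). Values are mean intrinsic clearance, Clint in μl/min/10^6 cells; geometric mean used for repeated runs.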

Solubility (Test F) = assay type: physicochemical; details: arithmetic mean if run multiple times
Experimental: The assay was conducted according to the Solubility Assay described in pages 164-167 of Wernevik, J. et al., “A Fully Integrated Assay Panel for Early Drug Metabolism and Pharmacokinetics Profiling”, Assay and Drug Development Technologies, 2020, 18(4), 157-179. Data are reported in Table 36 as solubility ([…]. Where the assay was run multiple times for the same compound, the arithmetic mean is reported.

human RXFP1 = biological target: T1, human RXFP1 (Homo sapiens, UniProt Q9HBX9); experiment: RXFP1 Hu cAMP (Test A); assay type: cell-based; set-up: expressed in transfected cells; host or cells: Jump-In T-REx CHO-K1 cells (ThermoFisher), induced with 10 ng/ml doxycycline for 24 h; details: RXFP1 Hu cAMP; for EC50: read-out: Test A EC50
T1 sequence (Q9HBX9 1-757): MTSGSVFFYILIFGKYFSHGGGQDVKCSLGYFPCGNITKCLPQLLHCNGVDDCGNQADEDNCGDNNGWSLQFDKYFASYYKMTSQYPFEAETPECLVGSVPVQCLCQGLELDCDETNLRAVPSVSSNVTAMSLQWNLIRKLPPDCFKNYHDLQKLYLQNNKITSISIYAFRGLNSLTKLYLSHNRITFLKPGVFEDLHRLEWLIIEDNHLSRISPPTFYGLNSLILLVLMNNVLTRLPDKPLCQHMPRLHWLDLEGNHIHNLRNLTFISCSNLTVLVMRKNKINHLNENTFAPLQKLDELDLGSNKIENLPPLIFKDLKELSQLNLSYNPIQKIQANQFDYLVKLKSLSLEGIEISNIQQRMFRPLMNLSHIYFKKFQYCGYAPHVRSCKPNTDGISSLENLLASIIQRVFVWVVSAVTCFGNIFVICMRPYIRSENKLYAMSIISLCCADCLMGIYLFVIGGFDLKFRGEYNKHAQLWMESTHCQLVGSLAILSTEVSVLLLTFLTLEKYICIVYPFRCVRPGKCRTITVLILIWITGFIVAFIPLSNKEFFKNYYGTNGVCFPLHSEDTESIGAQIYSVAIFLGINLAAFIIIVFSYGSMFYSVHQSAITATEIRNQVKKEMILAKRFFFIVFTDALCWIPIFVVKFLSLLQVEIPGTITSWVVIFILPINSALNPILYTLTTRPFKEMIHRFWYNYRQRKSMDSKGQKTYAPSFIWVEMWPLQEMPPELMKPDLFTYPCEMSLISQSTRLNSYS
How it was run: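 CHO-K1 (Jump-In T-REx), RXFP1 induced w/ 10 ng/ml doxycycline 24 h, cryopreserved. 0.5 mM IBMX final. cAMP by HTRF, 2 h RT, std curve.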

| Structure (SMILES) | Test B Human Plasma Protein Binding (% free) [1] [% free] | microsomal CLint [2] [µL/min/mg] | hepatocyte CLint [3] [µL/min/1e6 cells] | solubility (Solubility (Test F)) [µM] | Test A Sinf (human RXFP1) [%] | EC50 (human RXFP1) [nM] |
| --- | --- | --- | --- | --- | --- | --- |
| COc1cc(F)c(O[C@H]2CC[C@@](C)(C(=O)O)CC2)cc1C(=O)Nc1c(C)cccc1C(=O)NCC1(C)CCC1 [Example 156, (1s,4s)-4-(2-Fluoro-4-methoxy-5-((2-methyl-6-(((1-methylcyclobutyl)methyl)carbamoyl)phenyl)carbamoyl)phenoxy)-1-methylcyclohexane-1-carboxylic acid] | 3.2 | 4.3 | 22 | 770 (≈ 416 µg/mL) | 97 |  |
| O=C(N[C@@H]1[C@H]2CC[C@H](C2)[C@@H]1C(=O)Nc1cccc(S(=O)(=O)C(F)(F)F)c1)c1cc(O[C@H]2CC[C@@H](C(=O)O)CC2)c(F)cc1F [Example 430] | 3 | 61 | 22 | 760 (≈ 490 µg/mL) | 101 | > 230 |
| COc1cc(F)c(O[C@H]2CC[C@@H](C(=O)O)CC2)cc1C(=O)N[C@@H]1[C@H]2CC[C@H](C2)[C@@H]1C(=O)Nc1cccc(CF)c1 [Example 11, (1S,4s)-4-(2-Fluoro-5-(((1S,2R,3S,4R)-3-((3-(fluoromethyl)phenyl)carbamoyl)bicyclo[2.2.1]heptan-2-yl)carbamoyl)-4-methoxyphenoxy)cyclohexane-1-carboxylic acid] | 3.3 | 36 | > 300 | > 1000 | 104 |  |
| COc1cc(C#N)c(O[C@H]2CC[C@@](C)(C(=O)O)CC2)cc1C(=O)N[C@@H]1[C@H]2CC[C@H](C2)[C@@H]1C(=O)NCC1(CO)CCCC1 [Example 109] | 17 | 11 | 26 | 810 (≈ 471 µg/mL) | 103 | 250 |
| COc1cc(F)c(O[C@H]2CC[C@@](F)(C(=O)O)CC2)cc1C(=O)N[C@@H]1[C@H]2CC[C@H](C2)[C@@H]1C(=O)Nc1cccc(S(=O)(=O)C(F)(F)F)c1 [Example 416] | 1.2 | 9.9 | 10 | > 1000 | 103 | 320 |
| COc1cc(F)c(-c2ccc(CCC(=O)O)cc2)cc1C(=O)N[C@@H]1CCC[C@@H]1C(=O)Nc1cccc(S(=O)(=O)C(F)(F)F)c1 [Example 321] | 0.45 | 33 | 59 | 950 (≈ 605 µg/mL) | 101 | 340 |
| COc1cc(F)c(O[C@H]2CC[C@@](C)(C(=O)O)CC2)cc1C(=O)N[C@@H]1[C@H]2CC[C@H](C2)[C@@H]1C(=O)N[C@@H](C)C(C)C [Example 42] | 5.4 | < 3 | 19 | > 1000 | 95 |  |
| COc1cc(F)c(-c2ccc(OC(C)(C)C(=O)O)cc2)cc1C(=O)N[C@@H]1[C@H]2CC[C@H](C2)[C@@H]1C(=O)Nc1cccc(S(=O)(=O)C(F)(F)F)c1 [Example 256, 2-((2′-fluoro-4′-methoxy-5′-(((1S,2R,3S,4R)-3-((3-((trifluoromethyl)sulfonyl)phenyl)carbamoyl)bicyclo[2.2.1]heptan-2-yl)carbamoyl)-[1,1′-biphenyl]-4-yl)oxy)-2-methylpropanoic acid] | 0.050 | 8.1 | 12 | < 7 | 99 | 250 |
| COc1cc(C#N)c(O[C@H]2CC[C@@](C)(C(=O)O)CC2)cc1C(=O)N[C@@H]1[C@H]2CC[C@H](C2)[C@@H]1C(=O)NCC1(F)CCOCC1 [Example 110] | 44 | < 3 | 19 | 950 (≈ 556 µg/mL) | 102 | 740 |
| COc1cc(F)c(-c2ccc(C(=O)O)cc2)cc1C(=O)N[C@@H]1[C@H]2CC[C@H](C2)[C@@H]1C(=O)Nc1ccc(S(F)(F)(F)(F)F)cc1 [Example 210, 2′-Fluoro-4′-methoxy-5′-(((1S,2R,3S,4R)-3-((4-(pentafluoro-λ^6-sulfaneyl)phenyl)carbamoyl)bicyclo[2.2.1]heptan-2-yl)carbamoyl)-[1,1′-biphenyl]-4-carboxylic acid] | 0.049 | < 3 | 10 | 67 (≈ 42.1 µg/mL) | 50 | > 3600 |

Continued by falling EC50 (human RXFP1), values first:

| Test B Human Plasma Protein Binding (% free) [1] [% free] | microsomal CLint [2] [µL/min/mg] | hepatocyte CLint [3] [µL/min/1e6 cells] | solubility (Solubility (Test F)) [µM] | Test A Sinf (human RXFP1) [%] | EC50 (human RXFP1) [nM] | Structure (SMILES) |
| --- | --- | --- | --- | --- | --- | --- |
| 0.10 | 6.6 | 22 | 10 (≈ 6.33 µg/mL) | 98 | 240 | COc1cc(F)c(-c2cccc(C(=O)O)c2)cc1C(=O)N[C@H]1[C@@H](C(=O)Nc2cccc(S(=O)(=O)C(F)(F)F)c2)[C@@H]2C=C[C@H]1C2 (racemic) [Example 225, rac-2′-Fluoro-4′-methoxy-5′-(((1R,2R,3S,4S)-3-((3-((trifluoromethyl)sulfonyl)phenyl)carbamoyl)bicyclo[2.2.1]hept-5-en-2-yl)carbamoyl)-[1,1′-biphenyl]-3-carboxylic acid] |
| 2.3 | 19 | 12 | 780 (≈ 519 µg/mL) | 97 | 130 | COc1cc(F)c(-c2cnc(NCC(=O)O)nc2)cc1C(=O)N[C@@H]1[C@H]2CC[C@H](C2)[C@@H]1C(=O)Nc1cccc(S(=O)(=O)C(F)(F)F)c1 [Example 240] |
| 6.7 | 20 | 24 | 690 (≈ 390 µg/mL) | 109 | 110 | COc1cc(C#N)c(O[C@H]2CC[C@@](C)(C(=O)O)CC2)cc1C(=O)N[C@@H]1[C@H]2CC[C@H](C2)[C@@H]1C(=O)NCC1CC(C)(C)C1 [Example 87] |
| 4.1 | 64 | 26 | 540 (≈ 305 µg/mL) | 115 | 20 | CCC1(CNC(=O)[C@H]2[C@@H]3CC[C@@H](C3)[C@H]2NC(=O)c2cc(O[C@H]3CC[C@@](C)(C(=O)O)CC3)c(C#N)cc2OC)CCC1 [Example 86] |
| 0.24 | 27 | 20 | 80 (≈ 50.2 µg/mL) | 110 | 18 | COc1cc(F)c(O[C@H]2CC[C@@H](C(=O)O)CC2)cc1C(=O)N[C@@H]1[C@H]2CC[C@H](C2)[C@@H]1C(=O)Nc1ccc(Cl)c(C(F)(F)F)c1 [Example 186] |
